Measured values reported in US20050038103A1, “Uses of dorzolamide” (priority 2003, published 2005).

Experiments:
[1] = Night vision of patients being treated for glaucoma; format: in vivo, human
[2] = Sponsel et al., 1997; Harris et al., 1999; cited from earlier work
[3] = cited from earlier work
[4] = Visual fields in a patient with retinitis pigmentosa; conditions: for improvement in visual field: gtts (i) ou bid
[5] = Visual acuity (Snellen's chart) in patients with age-related macular degeneration; conditions: AMD patients

CCN[C@H]1C[C@H](C)S(=O)(=O)c2sc(S(N)(=O)=O)cc21 [dorzolamide]
night vision [1]: improved the night vision | contrast sensitivity [2]: enhance contrast sensitivity | perimetric light sensitivity [2]: increase perimetric light sensitivity | capillary dye transit in macula and optic nerve head ([3]; Harris et al., 1996): enhance capillary dye transit in macula and optic nerve head | retinal arteriovenous passage ([3]; Harris et al., 1999, 1996, 2001): accelerate retinal arteriovenous passage | increase of ocular pulse amplitude ([3]; Schmidt et al., 1998): 18-19% | safety ([4]; gtts (i) bid): very safe | improvement in visual field ([4]; five weeks): marked improvement in visual field in the left eye | improvement in visual field ([4]; nine weeks): still more marked improvement in both eyes | safety ([5]; gtts (i) bid): very safe | improvement in visual acuity (one more line on Snellen's chart) ([5]; gtts (i) bid in one eye, one month): Most patients demonstrated objective (and subjective) improvement in visual acuity in one month
